Assay results reported in publication PMC3983011 (2014).

Tests used:
Details in all cases: 150 mM NaCl, 5 mM MgCl2; 10 mM HEPES, pH 7.4, 25 °C; immobilised aptamer
[1] = test system: DH25.42 ATP aptamer (DNA, aptamer) CCTGGGGGAGTATTGCGGAGGAAGGAAAAAAAAAAAAAAAAAAAAAAAA; assay: SPR, steady-state affinity fit
[2] = test system: minimal Tyr 1 tyrosine aptamer (RNA, aptamer) GGGGGCAGUCAACUCGUAAGAUGGCCUUACAGCGGUCAAUACGGGGGUCAUCAGAUAGGGAGGCCCCCCAAAAAAAAAAAAAAAAAAAAAAAA; assay: SPR, steady-state affinity fit
[3] = test system: minimal MG-4 malachite green aptamer (RNA, aptamer) GGGAUCCCGACUGGCGAGAGCCAGGUAACGAAUGGAUCCCCCCAAAAAAAAAAAAAAAAAAAAAAAA; assay: SPR kinetics, kd/ka, 1:1 fit
[4] = test system: minimal MG-4 malachite green aptamer (RNA, aptamer) GGGAUCCCGACUGGCGAGAGCCAGGUAACGAAUGGAUCCCCCCAAAAAAAAAAAAAAAAAAAAAAAA; assay: SPR, steady-state affinity fit
[5] = test system: 44.Cit11 citrulline aptamer (RNA, aptamer) GGGACGAGAAGGAGUGCUGGUUAUACUAGCGGUUAGGUCACUCGUCCCCCAAAAAAAAAAAAAAAAAAAAAAAA; assay: SPR, steady-state affinity fit
[6] = test system: 35FMN-2 flavin mononucleotide aptamer (RNA, aptamer) GGGCGUGUAGGAUAUCGUGUUCGAGAAGGACACGCCCCCCAAAAAAAAAAAAAAAAAAAAAAAA; assay: SPR, steady-state affinity fit
[7] = test system: 35FMN-2 flavin mononucleotide aptamer (RNA, aptamer) GGGCGUGUAGGAUAUCGUGUUCGAGAAGGACACGCCCCCCAAAAAAAAAAAAAAAAAAAAAAAA; assay: SPR kinetics, kd/ka, 1:1 fit
[8] = test system: TCT8-4 theophylline aptamer (RNA, aptamer) GGGAAGUGAUACCAGCAUCGUCUUGAUGCCCUUGGCAGCACUUCCCCCAAAAAAAAAAAAAAAAAAAAAAAA; assay: SPR kinetics, kd/ka, 1:1 fit
[9] = test system: TCT8-4 theophylline aptamer (RNA, aptamer) GGGAAGUGAUACCAGCAUCGUCUUGAUGCCCUUGGCAGCACUUCCCCCAAAAAAAAAAAAAAAAAAAAAAAA; assay: SPR, steady-state affinity fit
[10] = test system: c-di-GMP class II riboswitch (RNA, riboswitch) GGGUAUUUAUAGAAACUGUGAAGUAUAUCUUAAACCUGGGCACUUAAAAGAUAUAUGGAGUUAGUAGUGCAACCUGCUAUAAAUACCCCAAAAAAAAAAAAAAAAAAAAAAAA; assay: SPR kinetics, kd/ka, 1:1 fit
[11] = test system: c-di-GMP class II riboswitch (RNA, riboswitch) GGGUAUUUAUAGAAACUGUGAAGUAUAUCUUAAACCUGGGCACUUAAAAGAUAUAUGGAGUUAGUAGUGCAACCUGCUAUAAAUACCCCAAAAAAAAAAAAAAAAAAAAAAAA; assay: SPR, steady-state affinity fit
[12] = test system: 44.Arg11 arginine aptamer (RNA, aptamer) GGGACGAGAAGGAGCGCUGGUUAUACUAGCAGGUAGGUCACUCGUCCCCCAAAAAAAAAAAAAAAAAAAAAAAA; assay: SPR, steady-state affinity fit
[13] = test system: minimal thiM TPP riboswitch (RNA, riboswitch) GGGACUCGGGGUGCCCUUCUGCGUGAAGGCUGAGAAAUACCCGUAUCACCUGAUCUGGAUAAUGCCAGCGUAGGGAAGUCCCCCAAAAAAAAAAAAAAAAAAAAAAAA; assay: SPR kinetics, kd/ka, 1:1 fit

With `Nc1ncnc2c1ncn2[C@@H]1O[C@H](COP(=O)(O)OP(=O)(O)OP(=O)(O)O)[C@@H](O)[C@H]1O` the “KD,equilibrium” value [1] was 8800 ± 3000 nM.
`N[C@@H](Cc1ccc(O)cc1)C(=O)O` was tested, and the “KD,equilibrium” value [2] was 17000 ± 6000 nM.
`CN(C)c1ccc(C(=C2C=CC(=[N+](C)C)C=C2)c2ccccc2)cc1` was tested, and the “KD,kinetic” value [3] was 950 ± 340 nM and the “KD,equilibrium” value [4] was 2000 ± 100 nM.
In the case of `NC(=O)NCCC[C@H](N)C(=O)O`, the “KD,equilibrium” value [5] is reported as 31000 ± 1000 nM.
In the case of `Cc1cc2nc3c(=O)[nH]c(=O)nc-3n(C[C@H](O)[C@H](O)[C@H](O)COP(=O)(O)O)c2cc1C`, the “KD,equilibrium” value [6] is reported as 710 ± 20 nM and the “KD,kinetic” value [7] is reported as 1100 ± 400 nM.
In the case of `Cn1c(=O)c2[nH]cnc2n(C)c1=O`, the “KD,kinetic” value [8] is reported as 430 ± 40 nM and the “KD,equilibrium” value [9] is reported as 340 ± 20 nM.
In the case of `Nc1nc2c(ncn2[C@@H]2O[C@@H]3COP(=O)(O)O[C@H]4[C@@H](O)[C@H](n5cnc6c(=O)[nH]c(N)nc65)O[C@@H]4COP(=O)(O)O[C@H]3[C@H]2O)c(=O)[nH]1`, the “KD,kinetic” value [10] is reported as 60 ± 31 nM and the “KD,equilibrium” value [11] is reported as 120 ± 20 nM.
In the case of `N=C(N)NCCC[C@H](N)C(=O)O`, the “KD,equilibrium” value [12] is reported as 140000 ± 40000 nM.
With `Cc1ncc(C[n+]2csc(CCOP(=O)(O)OP(=O)(O)O)c2C)c(N)n1` the “KD,kinetic” value [13] was 0.89 ± 0.8 nM.
